Source: US10159678B2, “Methods to decrease susceptibility to asthmatic bronchoconstriction” (Cornell University, priority 2012, dated 2018)

What was measured:
[1] = test system: ORMDL1, ORMDL2 and ORMDL3 mRNA; assay: ORMDL1, 2 and 3 mRNA expression in lung tissue (RealTime RT-PCR); assay type: in vivo, mice; conditions: 20 μg myriocin; FIG. 2H
Experimental: RNA was extracted from lungs using TRIzol (Invitrogen). Following reverse transcription of 3 μg RNA, ORMDL1, 2 and 3 mRNAs were amplified using the following primers and probes (Roche Applied Science): RNA levels were quantified using the ΔΔCt method and normalized to expression of murine ribosomal 18s (4310893E, Applied Biosystems). To assess if ORMDL expression was altered with decreased activity of SPT, mRNA expression of ORMDL1, 2 and 3 in lung tissue was analyzed following myriocin treatment and in the Sptlc2^+/− mice. Expression of ORMDL1, 2 or 3 was not affected by myriocin (FIG. 2H) or by genetic SPT deficiency (FIG. 2I).

human bronchial rings = assay: Myograph contractile response of human bronchial rings in myriocin-containing bath; conditions: 90 min in myriocin-containing bath solution (10 μM), then methacholine; FIG. 3E
Experimental: Human bronchial tissues were obtained from patients (n=15) undergoing surgery for lung cancer. The study was approved by the IRB at Weill Cornell Medical College. Within 30 min following resection, segments of bronchi with an inner diameter of 3-5 mm were taken from areas as far removed from the malignancy as possible. Bronchi were placed in oxygenated KH and following removal of adhering fat and connective tissues four to eight rings of the same bronchus were prepared. Each set of bronchial rings was suspended under an initial tension of 300-350 mg in KH solution containing 0.01% BSA, bubbled with 95% O2 and 5% CO2 at 37° C. and then washed every 15 min for 1 h. K^+ solution (80 mM) was then used to achieve maximum contraction and myriocin (10 μM) or solvent was added 30 min after washout of the K^+ solution. Methacholine (0.01-1 μM) was added after 90 minutes. Experiments were conducted on parallel groups of four rings at a time. Contractile responses were measured and analyzed as for the murine rings.

CCCCCCC(=O)CCCCCC/C=C/C[C@@H](O)[C@H](O)[C@@](N)(CO)C(=O)O [myriocin]
Expression of ORMDL1, 2 or 3 in lung tissue [1]: not affected
contractile force of human bronchial rings (human bronchial rings): increased contractile force
